Laboratory results from EPA's ToxRefDB 2.

Assays:
[1] = tested on: rat; settings: Carcinogenicity, fischer, Oral, Gavage/Intubation, dose end: 2 year, group: systemic
[2] = tested on: rat; settings: Subchronic inhalation toxicity, sprague dawley, Whole-Body, dose end: 13 week, group: systemic
[3] = tested on: mouse; settings: Subchronic oral toxicity in rodents, b6c3f1, Water, dose end: 13 week
[4] = tested on: rat; settings: Subchronic oral toxicity in rodents, fischer, Water, dose end: 13 week
[5] = tested on: rabbit; settings: Prenatal developmental toxicity study, new zealand white, Inhalation, Whole-Body, dose end: 18 GD
[6] = tested on: rabbit; settings: Subchronic inhalation toxicity, new zealand white, Whole-Body, dose end: 13 week, group: systemic
[7] = tested on: rat; settings: Prenatal developmental toxicity study, wistar, Inhalation, Whole-Body, dose end: 15 GD
[8] = tested on: mouse; settings: Carcinogenicity, b6c3f1, Oral, Gavage/Intubation, dose end: 2 year, group: systemic
[9] = tested on: rabbit; settings: Prenatal developmental toxicity study; dutch; Inhalation; Whole-Body; dose end: 18 GD; group: developmental; developmental / developmental malformation / bone / incomplete ossification + developmental / developmental malformation / bone / …
[10] = tested on: rat; settings: Prenatal developmental toxicity study, wistar, Inhalation, Whole-Body, dose end: 19 GD
[11] = tested on: rat; settings: Prenatal developmental toxicity study, wistar, Inhalation, Whole-Body, dose end: 19 GD; remark: listed apart in the source
[12] = systemic / in life observation / body weight / body weight
[13] = systemic / in life observation / body weight / body weight + systemic / pathology gross / adrenal gland / enlarged
[14] = systemic / organ weight / spleen / absolute + systemic / organ weight / spleen / relative to body weight
[15] = systemic / organ weight / spleen / absolute + systemic / organ weight / spleen / relative to body weight + systemic / clinical chemistry / …
[16] = group: maternal, reproductive / reproductive performance / estrous cycle / length
[17] = group: systemic, systemic / in life observation / body weight / body weight gain + systemic / organ weight / testes / absolute + systemic / pathology gross…
[18] = group: maternal, reproductive / reproductive performance / estrous cycle / abnormal + reproductive / reproductive performance / estrous cycle / length
[19] = group: systemic, systemic / clinical chemistry / alkaline phosphatase (alp/alk) / alkaline phosphatase (alp/alk)
[20] = group: systemic, systemic / in life observation / body weight / body weight + systemic / in life observation / body weight / body weight gain + systemic / …
[21] = group: developmental, developmental / developmental malformation / bone / supernumerary + developmental / developmental malformation / heart / [other] + …
[22] = group: maternal, reproductive / reproductive performance / resorptions / resorptions + systemic / in life observation / body weight / body weight gain + …
[23] = group: maternal, reproductive / reproductive performance / resorptions / resorptions + systemic / in life observation / food consumption / food consumption…
[24] = systemic / clinical chemistry / cholesterol / cholesterol
[25] = systemic / clinical chemistry / cholesterol / cholesterol + systemic / hematology / erythrocyte (rbc) count differential / erythrocyte (rbc…
[26] = group: developmental, systemic / in life observation / body weight / litter weight
[27] = group: developmental, systemic / in life observation / body weight / litter weight + developmental / developmental malformation / bone / incomplete ossification…
[28] = group: maternal, reproductive / reproductive performance / preimplantation loss / preimplantation loss + reproductive / offspring survival early / live …
[29] = systemic / in life observation / mortality / mortality + systemic / pathology gross / stomach / ulcer + systemic / pathology gross / testes…
[30] = group: developmental, developmental / developmental malformation / bone / incomplete ossification + developmental / developmental malformation / bone / knobby + …
[31] = group: maternal, reproductive / reproductive performance / resorptions / resorptions
[32] = group: maternal, reproductive / reproductive performance / resorptions / resorptions + systemic / in life observation / body weight / body weight + systemic…
[33] = group: maternal, systemic / organ weight / spleen / relative to body weight

## CCOCCO [2-Ethoxyethanol]
[1]; [12]
  LOAEL: 500 mg/kg/day
  NOAEL: < 500 mg/kg/day
[1]; [13]
  LEL: 500 mg/kg/day
  NEL: < 500 mg/kg/day
[2]; [14]
  LEL: 25 ppm
  NEL: < 25 ppm
[2]; [15]
  LOAEL: > 400 ppm
  NOAEL: ≥ 400 ppm
[3]; [16]
  LEL: 722 mg/kg/day
  LOAEL: > 11200 mg/kg/day
  NEL: < 722 mg/kg/day
  NOAEL: ≥ 11200 mg/kg/day
[3]; [17]
  LOAEL: 5120 mg/kg/day
  NOAEL: 2000 mg/kg/day
[3]; group: systemic, systemic / pathology microscopic / adrenal gland / hypertrophy
  LEL: 2720 mg/kg/day
[3]; group: systemic, systemic / pathology microscopic / adrenal gland / hypertrophy + systemic / in life observation / body weight / body weight gain + systemic…
  NEL: 1300 mg/kg/day
[4]; [18]
  LEL: 804 mg/kg/day
  LOAEL: > 2060 mg/kg/day
  NEL: 466 mg/kg/day
  NOAEL: ≥ 2060 mg/kg/day
[4]; [19]
  LEL: 109 mg/kg/day
  NEL: < 109 mg/kg/day
[4]; [20]
  LOAEL: 792 mg/kg/day
  NOAEL: 400 mg/kg/day
[5]; [21]
  LEL: 160 ppm
  LOAEL: > 617 ppm
  NEL: < 160 ppm
  NOAEL: ≥ 617 ppm
[5]; [22]
  LOAEL: > 617 ppm
  NOAEL: ≥ 617 ppm
[5]; [23]
  LEL: 160 ppm
  NEL: < 160 ppm
[6]; [24]
  LEL: 25 ppm
  NEL: < 25 ppm
[6]; [25]
  LOAEL: > 400 ppm
  NOAEL: ≥ 400 ppm
[7]; [26]
  LEL: 10 ppm
  NEL: < 10 ppm
[7]; [27]
  LOAEL: > 250 ppm
  NOAEL: ≥ 250 ppm
[7]; [28]
  LEL: 10 ppm
  LOAEL: > 250 ppm
  NEL: < 10 ppm
  NOAEL: ≥ 250 ppm
[8]; [29]
  LOAEL: > 2000 mg/kg/day
  NEL: 500 mg/kg/day
  NOAEL: ≥ 2000 mg/kg/day
[8]; systemic / pathology gross / testes / reduced size
  LEL: 1000 mg/kg/day
[9]
  LEL: 175 ppm
  LOAEL: > 175 ppm
  NEL: 50 ppm
  NOAEL: ≥ 175 ppm
[10]; [30]
  LEL: 150 ppm
  LOAEL: > 649 ppm
  NEL: < 150 ppm
  NOAEL: ≥ 649 ppm
[10]; [31]
  LEL: 150 ppm
  NEL: < 150 ppm
[10]; [32]
  LOAEL: > 649 ppm
  NOAEL: ≥ 649 ppm
[11]; [30]
  LEL: 202 ppm
  LOAEL: > 767 ppm
  NEL: < 202 ppm
  NOAEL: ≥ 767 ppm
[11]; [32]
  LOAEL: > 767 ppm
  NOAEL: ≥ 767 ppm
[11]; [33]
  LEL: 202 ppm
  NEL: < 202 ppm
